The series is described as follows: mn = molality of the nth substance listed, in mol/kg. The settings on record: 298.15 K, 101 kPa, Liquid, Westphal Balance.

The values that follow come from the NIST ThermoML archive (doi:10.1021/je200226z).

Each structure is given as a SMILES string. Numbers after ± are expanded uncertainties.

For the molecule `C=CCn1cc[n+](C)c1.[Cl-]` [1-allyl-3-methylimidazolium chloride] + O, the mass density (as a rule, the mass of a sample divided by its volume) is 998.1 ± 0.14 kg/m3 (m1 = 0.05); 999 ± 0.14 kg/m3 (m1 = 0.1); 999.8 ± 0.14 kg/m3 (m1 = 0.15); 1001.3 ± 0.14 kg/m3 (m1 = 0.25); 1004.8 ± 0.14 kg/m3 (m1 = 0.5); 1007.8 ± 0.13 kg/m3 (m1 = 0.75). In addition, the mass density (m1 = 1) is 1010.3 ± 0.12 kg/m3.
Turning to `OC[C@H]1O[C@@](CO)(O[C@H]2O[C@H](CO)[C@@H](O)[C@H](O)[C@H]2O)[C@@H](O)[C@@H]1O` [D-sucrose] + O, the mass density is, setting by setting: (m1 = 0.02) 999.72 ± 0.14 kg/m3; (m1 = 0.06) 1004.87 ± 0.14 kg/m3; (m1 = 0.1) 1009.9 ± 0.14 kg/m3; (m1 = 0.15) 1016.06 ± 0.14 kg/m3; (m1 = 0.2) 1022.12 ± 0.14 kg/m3; (m1 = 0.25) 1027.95 ± 0.14 kg/m3.
